Literature values in patent US20150105473A1, “AN ANTIBACTERIAL COMPOSITION WITH LOW AMOUNTS OF SURFACTANT AND ANTIBACTERIAL ACTIVES” (The Dial Corporation, priority 2013, published 2015).

solubility in water: poor solubility in water
Compound: Oc1cc(Cl)ccc1Oc1ccc(Cl)cc1Cl [triclosan]
